ChEMBL document CHEMBL4392885, “Investigation of Premyrsinane and Myrsinane Esters in Euphorbia cupanii and Euphobia pithyusa with MS2LDA and Combinatorial Molecular Network Annotation Propagation” (J Nat Prod, 2019)

Experiments:
[1] = test system: Chikungunya virus; assay: Antiviral activity against Chikungunya virus Indian ocean strain 899 infected in African green monkey Vero A cells assessed as reduction in viral-induced cytopathic effect after 6 to 7 days by MTS/PMS assay; format: functional, organism-based; conditions: Indian ocean strain 899, Vero
[2] = Selectivity index, ratio of CC50 for African green monkey Vero A cells to EC50 for Chikungunya virus Indian ocean strain 899 infected in African green monkey Vero A cells; format: toxicity; conditions: read-out: Ratio CC50/EC50

## CCCCC/C=C\C=C\C(=O)O[C@@H]1[C@@H](C)[C@@]2(O)[C@@H](C=C(CO)C[C@]3(O)C(=O)C(C)=C[C@@H]23)[C@@H]2C(C)(C)[C@]12OC(=O)C(C)C
[1]
  EC50: < 0.8 µM
[2]
  selectivity ratio: > 12

## CCCCC/C=C/C=C\C(=O)O[C@@H]1[C@@H](C)[C@@]2(O)[C@@H](C(=O)C(CO)=C[C@]3(O)C(=O)C(C)=C[C@@H]23)[C@@H]2C(C)(C)[C@]12OC(=O)C(C)C
[1]
  EC50: 4.5 µM
[2]
  selectivity ratio: 6.3

## CCCCC/C=C/C=C\C(=O)O[C@@H]1[C@@H](C)[C@@]2(O)[C@@H](C=C(CO)C[C@]3(O)C(=O)C(C)=C[C@@H]23)[C@@H]2C(C)(C)[C@]12OC(=O)C(C)C
[1]
  EC50: < 0.8 µM
[2]
  selectivity ratio: > 12

## CCCCC/C=C\C=C\C(=O)O[C@@H]1[C@@H](C)[C@@]2(O)[C@@H](C=C(CO)C[C@]3(O)C(=O)C(C)=C[C@@H]23)[C@@H]2C(C)(C)[C@]12OC(=O)C(C)CC (stereo partly drawn)
[1]
  EC50: < 0.8 µM
[2]
  selectivity ratio: > 12
